According to US20100130476A1, “COMPOUNDS THAT INDUCE PANCREATIC BETA-CELL EXPANSION” (The Scripps Research Institute, priority 2008, published 2010):
Entries after “also recorded” stand apart in the source; their conditions may differ. Values belong to the compound of their own block, whether it stands above or below them.

Assays:
[1] = target: GSK3-β (Homo sapiens, UniProt P49841); experiment: GSK3-β inhibition; format: biochemical; conditions: preliminary investigation
[2] = tested on: Super (8×) TOPFlash reporter; experiment: Super (8×) TOPFlash Wnt reporter in HEK293 cells; format: cell-based
Protocol: (§1) (A) Chemical structures of 5-thiophene pyrimidines. […] Relative luminescence unit (RLU) was measured by CellTiter-Glo assay after 7-day incubation of growth-arrested R7T1 β cells with 1a, which was added at day 0 and refreshed at day 4; experiments were performed in quadruplicate. All data in this paper are presented as mean±SD, unless otherwise specified. (C) Dose-dependent effects of 1a on the activation of Super (8×) TOPFlash reporter. HEK293 cells transfected with Super (8×) TOPFlash reporter were treated with 1a at the indicated concentrations 24 h after transfection. Luciferase activity was measured 48 h after compound treatment. (D and E) The proliferative effect of 1a on rat primary β cells. (D) After incubation for 72 h with 2 μM 1a, replicating β cells were identified by double-immunofluorescence staining by using anti-C-peptide antibody to mark β cells (green) and antibody against Ki-67, a proliferation marker (red). Nuclear DNA was stained with DAPI (blue). (Scale bar, 10 μm.) (E) The percentage of Ki-67-positive cells of all C-peptide-positive cells, which corresponds to the fraction of replicating β cells. The number of proliferating primary β cells increased after incubation for 72 h in the presence of 2 μM 1a compared with DMSO control: 1a at 2 μM increases the replicating β cells ≈2-fold. (F) Compound 1a stimulates the translocation of β-catenin into the nucleus. Nuclear β-catenin accumulation (green arrows) was increased in 10 μM 1a-treated HEK293 cells; in DMSO-treated control cells, β-catenin staining is weak and appears to concentrate at the cell surface. […] CellTiter-Glo activity was measured 7 days after compound treatment.

[3] = tested on: β-catenin; experiment: Nuclear β-catenin translocation in HEK293 cells; format: cell-based; conditions: 10 μM, versus DMSO, listed as 1a
Protocol: as §1, with “≈2-fold.” for “≈2-fold. (F) Compound 1a stimulates the translocation of β-catenin into the nucleus. Nuclear β-catenin accumulation (green arrows) was increased in 10 μM 1a-treated HEK293 cells; in DMSO-treated control cells, β-catenin staining is weak and appears to concentrate at the cell surface.”

[4] = tested on: Wnt reporter whose β-catenin/TCF binding sites are mutated; experiment: Mutated Wnt reporter; format: cell-based; conditions: data not shown
[5] = tested on: MIN6 cells; experiment: MIN6 β-cell proliferation (BrdU incorporation assay); format: cell-based
Protocol: (§2) R7T1 β-cells are expanded in growth medium (DMEM with 15% horse serum and 2.5% FBS) in the presence of 10 μg/ml doxycycline. (3TC-tet cells are expanded in growth medium (DMEM with 15% horse serum and 2.5% FBS) in the absence of 10 μg/ml doxycycline. Hamster HIT-T15 β-cells are grown in F12 medium with 15% horse serum and 2.5% FBS. MIN6 cells are cultured in DMEM with 15% FBS. HEK293 cells are grown according to instructions from ATCC (http://www.atcc.org/).

[6] = tested on: growth-arrested R7T1 β cells; experiment: R7T1 β-cell proliferation, CellTiter Glo assay (high-throughput screen and follow-up); format: cell-based, mouse; conditions: for expansion of the pancreatic β-cell population: high-throughput screen, CellTiter Glo at Day 8, screen concentration 1.25 μM
Protocol: as §2
R7T1 β-cells are expanded in large quantities in growth medium in the presence of 10 μg/ml doxycycline and then are growth arrested by removal of doxycycline for one week. For the primary screen, growth-arrested cells are plated onto 384- or 1536-well plates in growth medium without doxycycline at a density of 4000 cells/well in 384-well plate or 1000 cells/well in 1536-well plate in an automated high-throughput screening platform (designated as Day 0). […] For data analysis, the median of a plate is calculated and the activity of each well is the signal/median of the plate. A signal in any well over 1.5 of the median is regarded as a primary hit. For the reconfirmation screen, growth-arrested R7T1 cells are plated onto 384-well plates and screened against all primary hits in quadruplicate. To eliminate tetracycline mimetics among all reconfirmed primary hits, βTC-tet cells are plated onto 384-well plates at a density of 2000 cells/well in growth medium in the presence of 10 μg/ml doxycycline, and 1.25 μM compound is added after overnight incubation and refreshed 4 days later. The effects on β-cell replication are then determined at Day 8 using the CellTiter Glo assay system. Any compound that increases the readings more than 1.5 fold is regarded as a hit.
SV40 T antigen (TAg) oncoprotein under the control of the Tet-On system was used to immortalize mouse β cells so that these engineered β cells proliferate when TAg is induced in the presence of tetracycline (Tet), but undergo growth arrest upon withdrawal of Tet (see, Efrat S, et al., Proc. Natl. Acad. Sci. USA 92:3576-3580 (1995); Fleischer N, et al, Diabetes 47:1419-1425 (1998); and Milo-Landesman D, et al., Cell Transplant. 10:645-650 (2001)). Although not a true mimic of in vivo quiescent β cells, this system should allow us to identify small molecules that are able to induce reentry into cell cycle and proliferation of growth-arrested cells. Indeed, these engineered cells express high levels of β-cell signature markers, including insulin 1, insulin 2, and Pdx1, and are able to secrete insulin and restore and maintain euglycemia in STZ-treated diabetic mice when induced to growth arrest and transplanted (see, Efrat S, et al., supra; and Milo-Landesman D, et al., supra). A total of ≈850,000 compounds were screened with an automated high-throughput screening platform for their ability to induce the proliferation of growth-arrested β cells in either a 384- or 1,536-well plate format. In the primary screen, proliferation was assayed by using a luminescent assay measuring intracellular ATP content, which is directly proportional to viable cell number (see, Materials and Methods). To rule out any possible Tet mimetics that induce the proliferation of β cells through the induction of SV40 TAg expression, the Tet-Off immortalized β-cell line βTC-Tet was used for a counterscreen.

[7] = target: 65 kinases; experiment: Kinase profiling; format: biochemical; conditions: 5 μM; 65 kinases profiled
[8] = tested on: rat primary β cells; experiment: Primary β-cell proliferation assay, rat (C-peptide/Ki-67 double staining); format: cell-based; conditions: for increase in replicating primary rat β cells (Ki-67/C-peptide): 72 h, compared with DMSO; for increase in rat C-peptide/Ki-67 double positive β-cells: 72 hours (3 days), concentration not given
Protocol: (§3) Islets are isolated by the standard Liberase digestion method from the pancreata of adult Sprague-Dawley rats (200-250 g) (Liberase III; Roche Applied Science) and cultured in RPMI medium with 10% FBS. Briefly, 6 ml of ice-cold Liberase solution (Roche Applied Science) is injected into the pancreas via the common bile duct. After dissection, the pancreas is incubated for 35 minutes at 37° C. and then further dissociated by repeated pipetting using a 10-ml pipette. Islets are purified by Histopaque-1.077 (Sigma) density gradient centrifugation and are manually picked using a stereomicroscope. […] Human islets are obtained through the Juvenile Diabetes Research Foundation Islet Distribution Program by Islet Cell Resource Center in Minnesota, USA. The purity and viability of human islets are reported to be 30-70% and 50-70%, respectively. Human islets are cultured in CMRL medium containing 10% FBS.
(§4) Islets or single suspension cells are fixed with 4% formalin solution (Sigma) and stained by standard immuno-fluorescence techniques for C-peptide (anti-human C-peptide antibody from Raybiotech, Inc., and anti-rat C-peptide antibody from Linco, Inc.) and Ki-67 (anti-Ki-67 antibody from Abcam), a marker of proliferating cells. Nuclear DNA is stained with DAPI (Molecular Probes). At least 30,000 C-peptide positive cells are counted in each experiment, performed in triplicate. The images are taken on a Nikon Eclipse TE300 microscope with 200× magnification. Proliferating C-peptide/Ki-67 double positive β-cells are counted manually.

[9] = tested on: HIT-T15 β cells; experiment: HIT-T15 β-cell proliferation (BrdU incorporation assay); format: cell-based, Hamster
Protocol: as §2

[10] = tested on: human primary β cells; experiment: Primary β-cell proliferation assay, human (C-peptide/Ki-67 double staining); format: cell-based
Protocol: as §3, §4

[11] = tested on: MIN6 cells; experiment: Calcium influx assay (fluo-3, FLIPR); format: cell-based; conditions: MIN6 β cells
Protocol: Calcium Influx Assay.Measurement of intracellular Ca^2+ ([Ca^2+]i) was performed by using a fluorescence laser-imaging plate reader (FLIPR; Molecular Devices). Briefly, MIN6 cells cultured in 384-well plates were incubated for 1 h with 4 μM fluo-3/AM (Molecular Probes) and 0.04% pluronic acid in physiological Locke's buffer (154 mM NaCl, 5.6 mM KCl, 1.0 mM MgCl2, 2.3 mM CaCl2, 8.6 mM Hepes, 5.6 mM glucose, and 0.1 mM glycine [pH 7.4]). After incubation, MIN6 cells were washed with Locke's buffer by using an automated cell washer to remove extracellular dye. MIN6 cells were treated with compounds at the indicated concentrations. These cells were excited at 488 nm and Ca^2+-bound fluo-3 emission was recorded at 500-560 nm.

[12] = tested on: growth-arrested R7T1 β cells; experiment: Microarray analysis of gene expression; format: cell-based, mouse
Protocol: RNA extraction from R7T1 β-cells treated with compounds at the indicated time points is performed using RNeasy kits (Qiagen). The integrity and concentration of RNA is determined by microfluidic analysis on an Experion instrument (BioRad). Standard Affymetrix single amplification is performed using 5 μg total RNA. Standard Affymetrix protocols are used to process Affymetrix MOE430—2 microarrays (Affymetrix). All CEL file images are processed as a single group using gcRMA.

[13] = tested on: Ras; experiment: Ras activation analysis (GST-Raf1 RBD pull-down); format: cell-based, mouse; conditions: growth-arrested R7T1 β cells; for Ras-GTP level / Ras signaling (in words): 0.5 μM
Protocol: Ras-GTP levels are detected using the Active Ras Pull-Down and Detection Kit, following the manufacturer's instructions (Pierce). Briefly, growth-arrested R7T1 β-cells are treated with 0.5 μM of a compound of the invention for an indicated time. Cells are then washed twice with ice-cold phosphate-buffered saline (PBS) and lysed in Lysis/Binding/Wash Buffer containing protease inhibitor cocktail [Roche]. Lysates (500 μg) are clarified by centrifugation and supernatants are incubated with 80 μg of GST-Raf1-RBD fusion protein precoupled to glutathione-Sepharose beads. After incubation for 1 hour at 4° C., beads are washed three times in Lysis/Binding/Wash Buffer, resuspended in Laemmli buffer and boiled. Samples are analyzed by SDS-PAGE (4-20%) followed by transfer to nitrocellulose membrane and then are probed with anti-Ras antibody. Blots are developed using the enhanced ECL system.

Chain of GSK3-β (P49841 whole entry, species assumed): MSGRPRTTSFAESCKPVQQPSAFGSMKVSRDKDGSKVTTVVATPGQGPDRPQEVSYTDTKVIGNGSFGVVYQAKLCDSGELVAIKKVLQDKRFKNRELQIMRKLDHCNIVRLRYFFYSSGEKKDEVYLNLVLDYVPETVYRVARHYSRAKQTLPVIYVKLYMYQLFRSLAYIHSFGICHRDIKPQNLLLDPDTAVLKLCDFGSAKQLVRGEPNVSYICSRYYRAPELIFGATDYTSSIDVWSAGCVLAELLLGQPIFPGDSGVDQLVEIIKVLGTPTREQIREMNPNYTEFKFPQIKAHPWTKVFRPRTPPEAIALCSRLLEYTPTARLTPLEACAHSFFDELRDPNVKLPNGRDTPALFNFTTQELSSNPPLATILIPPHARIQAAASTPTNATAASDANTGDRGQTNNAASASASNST

IC50 [1]: 64 nM | EC50 ([2]; Homo sapiens, HEK293 cells, luciferase 48 h after compound treatment, read-out: EC50 of induction of Super (8×) TOPFlash reporter): ~1250 nM | kinases profiled that were inhibited by >75% [7]: 7 of 65
Structure (SMILES): CN1CCN(C(=O)c2ccc(Nc3nccc(-c4cccs4)n3)cc2Cl)CC1 [Example 1, (2-chloro-4-(4-(thiophen-2-yl)pyrimidin-2-ylamino)phenyl)(4-methylpiperazin-1-yl)methanone]
activation of the Wnt reporter compared with DMSO ([2]; 10 μM): 15 fold | nuclear β-catenin accumulation [3]: Increased nuclear β-catenin accumulation | activity on mutated Wnt reporter [4]: no activity | proliferation of MIN6 β cells (in words) [5]: promote the proliferation | EC50 ([6]; Mus musculus, 168 h, CellTiter-Glo after 7-day incubation, read-out: EC50 of replication of growth-arrested R7T1 β cells): ~1100 nM | expansion of the pancreatic β-cell population [6]: 2.5 fold | increase in replicating primary rat β cells (Ki-67/C-peptide) ([8]; 2 μM): ≈ 2 fold | increase in rat C-peptide/Ki-67 double positive β-cells [8]: 2 fold | proliferation of HIT-T15 β cells (in words) [9]: promote the proliferation

Structure (SMILES): CC1=C(CC(=O)O)c2cc(F)ccc2/C1=C\c1ccc([S+](C)[O-])cc1 (stereo not drawn) [Sulindac]
effect on 1a-stimulated Wnt activation [2]: abolished | effect on 1a-stimulated β-cell proliferation ([6]; 60 μM Sulindac with 10 μM 1a, CellTiter-Glo after 7 days): abolished

Structure (SMILES): COC(=O)C1=C(C)NC(C)=C([N+](=O)[O-])[C@H]1c1ccccc1C(F)(F)F [Example 2a, (S)-methyl 2,6-dimethyl-5-nitro-4-(2-(trifluoromethyl)phenyl)-1,4-dihydropyridine-3-carboxylate]
increase in proliferating human primary β cells ([10]; 1 μM, 72 h, compared with DMSO): ≈ 1.5 fold | increase in human C-peptide/Ki-67 double positive β-cells ([10]; 72 hours, concentration not given): 1.5 fold | number of proliferating human primary β cells (in words) ([10]; human islets, 3 days, 2a 1 μM, Ex-4 5 nM where combined): increase the number of proliferating human β cells | proliferation of MIN6 β cells (in words) [5]: increased proliferation | duration of R7T1 proliferation in the presence of the compound [6]: up to 3 weeks | time to stop of proliferation after removal of the compound [6]: ≤ 1 week | effect on growth-arrested R7T1 β cells (in words) ([6]; CellTiter-Glo, 7 days): β-cell proliferation | increase in transient intracellular calcium levels ([11]; fluo-3, FLIPR): 10 fold | calcium influx (in words) ([11]; fluo-3, FLIPR up to 5 min): stimulated | expression of IRS2 ([12]; 0.5 μM): 1.7 fold | expression of Ccnd2 (cyclin D2) ([12]; 0.5 μM, 24 h): approximately 1.7 fold | expression of RasGEFs (RasGRF1, RasGEF1b) (in words) ([12]; 2-6 h after treatment): transcriptionally up-regulated; also recorded: activated | expression of Ccnd2 (in words) ([12]; 2a 1 μM, Ex-4 5 nM where combined, 2 h to 24 h): increased; also recorded: up-regulated | expression of β-cell signature markers insulin 1, insulin 2, Pdx1 ([12]; pretreatment versus posttreatment, data not shown): unchanged | expression of immediate-early genes (Fos, Jun, Egr, Ier families) ([12]; within 30 min, 0.5 μM or 1 μM 2a, Ex-4 5 nM where combined): large increase; also recorded: highly induced | time of peak Ras-GTP level [13]: 10 min | Ras-GTP level / Ras signaling (in words) [13]: elevated; also recorded: Activation | Ras-GTP level / Ras signaling (in words) ([13]; listed as (S)-methyl 2,6-dimethyl-5-nitro-4-(2-(trifluoromethyl)phenyl)-1,4-dihydropyridin): activates the Ras pathway | increase in replicating primary rat β cells (Ki-67/C-peptide) ([8]; 1 μM): ≈ 2.5 fold | increase in rat C-peptide/Ki-67 double positive β-cells [8]: 2.5 fold | proliferation of HIT-T15 β cells (in words) [9]: increased proliferation

Structure (SMILES): COc1ccc(CCNc2nc(N3CCCC3CO)nc3ccccc23)cc1 (stereo not drawn) [Example 9, (1-(4-(4-methoxyphenethylamino)quinazolin-2-yl)pyrrolidin-2-yl)methanol]
expansion of the pancreatic β-cell population [6]: 3 fold
